Key:
Experiment in all cases: relative viability (nuclei count vs DMSO), 5 days (fraction); higher = more cells survive
[1] = compound: O=C(CCCCCCNC(=O)c1cnc(N(c2ccccc2)c2ccccc2)nc1)NO [Ricolinostat] + Nc1ncn([C@H]2C[C@H](O)[C@@H](CO)O2)c(=O)n1 [Decitabine] (partner 2 µM)
Procedure, shortened: (§1)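 Five library-drug doses in √10 steps were combined with a fixed anchor-drug dose, or a single drug was given alone, by pin tool to lung cancer cell lines in 1536-well plates the day after seeding. Nuclei were stained and counted after 5 days. Relative viability is the nuclei count in treated wells over that in vehicle wells, taken as the median of duplicate plates.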

[2] = compound: O=C(CCCCCCNC(=O)c1cnc(N(c2ccccc2)c2ccccc2)nc1)NO [Ricolinostat] + CC(=O)c1c(C)c2cnc(Nc3ccc(N4CCNCC4)cn3)nc2n(C2CCCC2)c1=O [Palbociclib] (partner 0.5 µM)
Procedure, shortened: as §1

[3] = compound: O=C(CCCCCCNC(=O)c1cnc(N(c2ccccc2)c2ccccc2)nc1)NO [Ricolinostat] + CS(=O)(=O)N1CCN(Cc2cc3nc(-c4cccc5[nH]ncc45)nc(N4CCOCC4)c3s2)CC1 [Pictilisib] (partner 1 µM)
Procedure, shortened: as §1

[4] = compound: C1=CC=C(C(=C1)C2=CC=C(C=C2)C3=CSC4=C3C(=C(C(=O)N4)C#N)O)O + CS(=O)(=O)CCNCc1ccc(-c2ccc3ncnc(Nc4ccc(OCc5cccc(F)c5)c(Cl)c4)c3c2)o1 [Lapatinib] (partner 2 µM)
Procedure, shortened: as §1

Cell Line	relative viability ([1]; first compound 0.08 µM)	relative viability ([1]; first compound 0.253 µM)	relative viability ([1]; first compound 0.8 µM)	relative viability ([1]; first compound 2.53 µM)	relative viability ([2]; first compound 0.08 µM)	relative viability ([2]; first compound 0.253 µM)	relative viability ([2]; first compound 0.8 µM)	relative viability ([2]; first compound 2.53 µM)	relative viability ([3]; first compound 0.08 µM)	relative viability ([3]; first compound 0.253 µM)	relative viability ([3]; first compound 0.8 µM)	relative viability ([3]; first compound 2.53 µM)	relative viability ([4]; first compound 0.08 µM)	relative viability ([4]; first compound 0.253 µM)	relative viability ([4]; first compound 0.8 µM)	relative viability ([4]; first compound 2.53 µM)	relative viability ([4]; first compound 8 µM)
NCI-H1993	0.571	0.588	0.599	0.709	0.614	0.67	0.664	0.514	0.645	0.889	0.882	0.239	0.889	0.814	0.764	0.869	0.782
LU99A	0.883	0.899	0.722	0.748	0.43	0.399	0.396	0.355	0.299	0.262	0.258	0.219	0.97	1.09	1.13	1.12	0.955
NCI-H1355	0.332	0.331	0.36	0.328	0.373	0.367	0.31	0.402		0.418	0.419	0.316	0.949	0.966	1.1	0.81	0.999
NCI-H838	0.44	0.471	0.489	0.539	0.202	0.262	0.182	0.235	0.326	0.563	0.613	0.531	0.659	1.11	0.973	0.887	0.872
SK-MES-1	0.402	0.384	0.344	0.375	0.369	0.308	0.339	0.397	0.277	0.34	0.304	0.293	0.435	0.51	0.441	0.457	0.463
NCI-H460	0.496	0.429	0.519	0.427	0.184	0.191	0.0967	0.0766	0.332	0.393	0.308	0.269		1.09	0.868	1.24	0.747
HCC-78		0.7	0.602	0.585		0.438	0.484	0.479		0.196	0.163	0.184	0.575	0.935	0.899	0.781	0.809
NCI-H358	0.247	0.212	0.214	0.179	0.151	0.147	0.173	0.165	0.213	0.495	0.463	0.539	0.431	0.473	0.549	0.49	0.41
H3255	0.522	0.598	0.538	0.426	0.336	0.307	0.292	0.33	0.387	0.418	0.484	0.484	0.231	0.292	0.231	0.235	0.25
NCI-H2023	0.234	0.233	0.227	0.204	0.415	0.328	0.42	0.397	0.162	0.277	0.183	0.185	0.925	0.94	0.579	0.729	0.88
NCI-H1944	0.409	0.37	0.382	0.385	0.332	0.307	0.309	0.297	0.285	0.347	0.321	0.289	0.69	0.853	0.883	0.67	0.788
LOU-NH91		0.794	0.826	0.887		0.526	0.587	0.514		0.557	0.492	0.528	0.751	0.807	0.788	0.601	0.738
NCI-H2347	0.626	0.664	0.585	0.61	0.487	0.371	0.294	0.408	0.451	0.628	0.884	0.644	0.844	1.17	0.889	0.916	0.932
RERF-LC-KJ	0.77	0.609	0.672	0.618	1.02	1.21	1.25	0.902	0.755	0.637	0.422	0.467	0.787	0.883	0.884	0.833	0.848
HCC-44	1	0.948	0.926	0.951	0.91	0.935	1.01	0.964	0.551	0.673	0.635	0.424	0.863	1.07	0.928	1.02	0.993
NCI-H650	0.312	0.301	0.315	0.306	0.33	0.356	0.32	0.253		0.766	0.77	0.506	0.625	1.09	0.742	1.09	0.763
NCI-H1395		0.731	0.652	0.663		0.603	0.662	0.702		0.636	0.511	0.597		0.87	1.05	0.974	0.965

Cell Line	relative viability ([1]; first compound 0.08 µM)	relative viability ([1]; first compound 0.253 µM)	relative viability ([1]; first compound 0.8 µM)	relative viability ([1]; first compound 2.53 µM)	relative viability ([2]; first compound 0.08 µM)	relative viability ([2]; first compound 0.253 µM)	relative viability ([2]; first compound 0.8 µM)	relative viability ([2]; first compound 2.53 µM)	relative viability ([3]; first compound 0.08 µM)	relative viability ([3]; first compound 0.253 µM)	relative viability ([3]; first compound 0.8 µM)	relative viability ([3]; first compound 2.53 µM)	relative viability ([4]; first compound 0.08 µM)	relative viability ([4]; first compound 0.253 µM)	relative viability ([4]; first compound 0.8 µM)	relative viability ([4]; first compound 2.53 µM)	relative viability ([4]; first compound 8 µM)
COR-L 105	0.675	0.65	0.7	0.669	0.401	0.396	0.387	0.476	0.367	0.412	0.485	0.279	0.4	0.353	0.34	0.344	0.345
COR-L23	0.402	0.493	0.358	0.332	0.261	0.227	0.203	0.156	0.576	0.737	0.697	0.326	0.772	1.22	0.834	1.11	0.712
LXF-289	0.407	0.366	0.384	0.347	0.618	0.552	0.599	0.609	0.702	0.809	0.804	0.554	0.89	0.895	0.917	0.908	0.924
PC-14	0.22	0.19	0.193	0.22	0.57	0.478	0.462	0.406	0.536	0.681	0.653	0.321	0.287	0.38	0.3	0.256	0.269
EKVX	0.31	0.322	0.299	0.346	0.358	0.42	0.408	0.422		0.444	0.456	0.378	0.225	0.208	0.201	0.195	0.211
NCI-H322M	0.616	0.708	0.721	0.754	0.495	0.493	0.478	0.52		0.558	0.561	0.568	0.621	0.616	0.569	0.563	0.589
NCI-H520		0.521	0.513	0.426		0.256	0.262	0.27		0.218	0.272	0.23	0.602	0.876	1.15	0.859	0.736
LC-2-ad	0.776	0.784	0.842	0.835	0.52	0.418	0.465	0.488	0.4	0.546	0.433	0.236	0.781	1.01	0.903	1.1	1.11
LCLC-97TM1	0.225	0.185	0.214	0.227	0.198	0.202	0.232	0.212	0.205	0.181	0.168	0.141	1.01	1.6	1.05	0.68	0.92
NCI-H1437	0.448	0.545	0.543	0.467	0.357	0.311	0.282	0.227	0.38	0.414	0.36	0.223	0.72	0.794	0.772	0.891	0.527
NCI-H1915	0.276	0.264	0.245	0.238	0.488	0.521	0.474	0.419	0.852	0.928	0.869	0.729	0.835	1.04	0.924	1.15	0.882
SW 1573	0.487	0.496	0.546	0.416	0.387	0.434	0.337	0.357	0.454	0.504	0.542	0.475	0.991	1.12	1.21	1.11	0.862
NCI-H661	0.552	0.511	0.581	0.489	0.426	0.381	0.415	0.364		0.412	0.422	0.727	0.446	0.481	0.501	0.507	0.382
PC-3 [JPC-3]	0.766	0.736	0.757	0.758	0.533	0.499	0.518	0.487	0.669	0.808	0.673	0.456	0.488	0.556	0.479	0.441	0.472
201T	0.843	0.847	0.873	0.887	0.362	0.356	0.36	0.369	0.586	0.748	0.727	0.606	0.979	1.03	1.01	0.849	1.12
LK-2	0.268	0.364	0.24	0.212	0.774	0.548	0.599	0.605		0.497	0.48	0.483		0.884	0.932	1.05	0.696
NCI-H727	0.807	0.934	0.957	0.952	0.645	0.627	0.705	0.683	0.305	0.409	0.623	0.291	0.834	0.844	0.927	0.589	0.757

— the supplement of paper PMC10307832
